Test results from the supplement of paper PMC10307832.

Legend:
Assay in all cases: relative viability (nuclei count vs DMSO), 5 days (fraction); higher = more cells survive
Midostaurin + Alpelisib = compound: CO[C@@H]1[C@H](N(C)C(=O)c2ccccc2)C[C@H]2O[C@]1(C)n1c3ccccc3c3c4c(c5c6ccccc6n2c5c31)C(=O)NC4 [Midostaurin] + Cc1nc(NC(=O)N2CCC[C@H]2C(N)=O)sc1-c1ccnc(C(C)(C)C(F)(F)F)c1 [Alpelisib] (partner 2 µM)
How it was run: (§1)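 For relative viability, nuclei counts in treated wells were divided by those in vehicle wells. Lung cancer cell lines had been pin-tool dosed in 1536-well plates the day after seeding and cultured for 5 days, then fixed and stained in one step (final 0.05% Triton X-100, 1% formaldehyde, 1 ug/ml Hoechst) and imaged at 4×. Doses were one drug alone or a fixed anchor-drug dose plus five library-drug doses (not always all listed) in √10 steps, and values are duplicate-plate medians.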

[1] = compound: COc1cc(-c2nn([C@H]3CC[C@H](N4CCN(C(C)=O)CC4)CC3)c3ncnc(N)c23)ccc1NC(=O)c1cc2ccccc2n1C + Nc1nc2[nH]cc(CCc3ccc(C(=O)N[C@@H](CCC(=O)O)C(=O)O)cc3)c2c(=O)[nH]1 [Pemetrexed] (partner 0.2 µM)
How it was run: as §1

Midostaurin + Linsitinib = compound: CO[C@@H]1[C@H](N(C)C(=O)c2ccccc2)C[C@H]2O[C@]1(C)n1c3ccccc3c3c4c(c5c6ccccc6n2c5c31)C(=O)NC4 [Midostaurin] + C[C@]1(O)C[C@@H](c2nc(-c3ccc4ccc(-c5ccccc5)nc4c3)c3c(N)nccn32)C1 [Linsitinib] (partner 1 µM)
How it was run: as §1

Midostaurin + Pemetrexed = compound: CO[C@@H]1[C@H](N(C)C(=O)c2ccccc2)C[C@H]2O[C@]1(C)n1c3ccccc3c3c4c(c5c6ccccc6n2c5c31)C(=O)NC4 [Midostaurin] + Nc1nc2[nH]cc(CCc3ccc(C(=O)N[C@@H](CCC(=O)O)C(=O)O)cc3)c2c(=O)[nH]1 [Pemetrexed] (partner 0.2 µM)
How it was run: as §1

[2] = compound: COc1cc(-c2nn([C@H]3CC[C@H](N4CCN(C(C)=O)CC4)CC3)c3ncnc(N)c23)ccc1NC(=O)c1cc2ccccc2n1C + CS(=O)(=O)CCNCc1ccc(-c2ccc3ncnc(Nc4ccc(OCc5cccc(F)c5)c(Cl)c4)c3c2)o1 [Lapatinib] (partner 2 µM)
How it was run: as §1

Cell Line	relative viability (Midostaurin + Alpelisib; first compound 0.01 µM)	relative viability (Midostaurin + Alpelisib; first compound 0.03162 µM)	relative viability (Midostaurin + Alpelisib; first compound 0.1 µM)	relative viability (Midostaurin + Alpelisib; first compound 0.3162 µM)	relative viability ([1]; first compound 0.0128 µM)	relative viability ([1]; first compound 0.04048 µM)	relative viability ([1]; first compound 0.128 µM)	relative viability ([1]; first compound 1.28 µM)	relative viability (Midostaurin + Linsitinib; first compound 0.01 µM)	relative viability (Midostaurin + Linsitinib; first compound 0.03162 µM)	relative viability (Midostaurin + Linsitinib; first compound 0.1 µM)	relative viability (Midostaurin + Linsitinib; first compound 0.3162 µM)	relative viability (Midostaurin + Pemetrexed; first compound 0.01 µM)	relative viability (Midostaurin + Pemetrexed; first compound 0.03162 µM)	relative viability (Midostaurin + Pemetrexed; first compound 0.1 µM)	relative viability (Midostaurin + Pemetrexed; first compound 0.3162 µM)	relative viability ([2]; first compound 0.0128 µM)	relative viability ([2]; first compound 0.04048 µM)	relative viability ([2]; first compound 0.128 µM)	relative viability ([2]; first compound 1.28 µM)
NCI-H2347	0.995	0.988	0.964	0.992	0.45	0.447	0.431	0.382	0.896	0.837	0.899	0.927	0.459	0.416	0.417	0.405	1.1	0.874	0.927	1.05
NCI-H2009	1.24	1.01	1.05	1.16	1.03	1.09	1.21	1.19	1.2	1.05	1.06	1.19	0.956	0.878	0.921	1.06	1.26	0.438	0.961	0.888
HCC-15	0.944	0.838	0.954	0.925	0.227	0.228	0.198	0.225	0.886	0.898	0.904	0.818	0.22	0.229	0.238	0.199	1.08	0.726	0.87	0.896
HCC-44	0.831	0.837	0.761	0.607	0.719	0.742	0.607	0.687	0.756	0.659	0.579	0.609	0.604	0.628	0.657	0.663	1.08	1.21	0.937	1.23
COR-L23	0.737	0.659	0.818	0.497	0.193	0.206	0.189	0.204	0.863	0.802	0.764	0.764	0.195	0.205	0.195	0.188	0.933	1.2	0.789	0.992
HCC-78	0.413	0.305	0.358	0.296	0.939	0.879	0.889	0.91	0.53	0.483	0.556	0.278	0.926	0.857	0.946	0.865	0.953	0.85	0.673	0.585
NCI-H2087	1.2	0.978	1.05	1.06	0.601	–	0.697	0.707	0.985	0.885	0.934	1.01	0.701	0.665	0.66	0.658	1.05	0.659	0.93	1.17
BEN	1.03	1.02	0.968	1.06	0.686	0.814	0.871	0.664	0.926	0.905	1.02	0.978	0.809	0.674	0.665	0.752	0.588	0.646	0.878	0.401
EKVX	0.968	0.813	0.814	0.824	0.43	0.4	0.373	0.374	0.953	1.03	0.943	0.892	0.514	0.349	0.379	0.404	0.217	0.203	0.189	0.154
LXF-289	0.997	1.02	0.952	0.976	1.01	0.881	0.901	1.16	1	0.967	0.866	0.953	0.891	0.903	0.888	0.896	1.01	0.86	0.876	1.02
NCI-H650	1.04	1.07	1.11	0.63	1.09	1.05	1.02	0.897	0.715	0.862	0.76	0.508	0.906	0.892	0.99	0.686	1.14	1.36	0.843	0.837
NCI-H2085	0.961	0.9	0.907	0.788	0.915	0.86	0.81	0.539	0.842	0.865	0.801	0.768	0.971	0.784	0.928	0.632	0.77	0.822	0.805	0.564
NCI-H1793	0.705	0.601	0.664	0.662	1.04	0.771	0.871	0.617	1.08	0.77	0.651	0.559	0.926	1.01	0.782	0.673	1.01	0.501	0.434	0.621
LC-2-ad	0.82	0.78	0.878	0.654	0.304	0.277	0.243	0.275	0.851	0.768	0.849	0.631	0.295	0.281	0.25	0.258	0.988	0.817	0.847	0.961
COR-L 105	1.08	0.823	0.778	1.05	1.08	1.11	1.1	0.836	0.818	0.922	0.766	0.727	1.15	0.945	1.11	0.873	0.3	0.327	0.352	0.31
